In ChEMBL document CHEMBL6114991, “Design, synthesis, and biological evaluation of novel quinoline carboxylic acid based styryl/alkyne hybrid molecule as a potent anti-adipogenic and antidyslipidemic agent via activation of Wnt/β-catenin pathway” (Eur J Med Chem, 2025):
Activity calls are given as the source filed them. No cut-off for these calls is given here.

Key:
3T3-L1 [1] = assay: Anti-adipogenic activity in MDI-induced mouse 3T3-L1 cells assessed as suppression of adipogenesis at 0.3 uM by oil red O staining based analysis; format: functional, cell-based; details: time 72.0 hrs
3T3-L1 [2] = assay: Cytotoxicity against mouse 3T3-L1 cells assessed as cell viability at 30 uM incubated for 48 hrs by MTT assay; format: toxicity, cell-based; details: 3t3-l1, 48 h
3T3-L1 [3] = assay: Cytotoxicity against mouse 3T3-L1 cells assessed as cell viability at 10 uM incubated for 48 hrs by MTT assay; format: toxicity, cell-based; details: 3t3-l1, 48 h
3T3-L1 [4] = assay: Anti-adipogenic activity in mouse 3T3-L1 cells assessed as change in lipid content at 10 uM measured at 3 to 5 days; format: functional, cell-based; details: time 3-5 day
3T3-L1 [5] = assay: Anti-adipogenic activity in mouse 3T3-L1 cells assessed as change in lipid content at 10 uM measured at 3 to 7 days; format: functional, cell-based; details: time 3-7 day
3T3-L1 [6] = assay: Inhibition of adipogenesis in mouse 3T3-L1 cells assessed as downregulation of PPARgamma expression at 10 uM measured at upto 5 days by immunoblotting analysis; format: functional, cell-based; details: time <= 5.0 day
3T3-L1 [7] = assay: Inhibition of adipogenesis in mouse 3T3-L1 cells assessed as downregulation of PPARgamma expression at 10 uM measured at upto 7 days by immunoblotting analysis; format: functional, cell-based; details: time <= 7.0 day
3T3-L1 [8] = assay: Induction of cell cycle arrest in mouse 3T3-L1 cells assessed as reduction in cyclin D3 level at 10 uM incubated for 16 to 24 hrs by immunoblotting analysis; format: functional, cell-based; details: time 16-24 hrs
[9] = Half life in Golden Syrian hamster at 100 mg/kg, po measured upto 24 hrs by LC-MS/MS analysis; format: ADME, organism-based, Mesocricetus auratus; details: in vivo
[10] = Clearance in Golden Syrian hamster at 100 mg/kg, po measured upto 24 hrs by LC-MS/MS analysis; format: ADME, organism-based, Mesocricetus auratus; details: in vivo
[11] = Volume of distribution in Golden Syrian hamster at 100 mg/kg, po measured upto 24 hrs by LC-MS/MS analysis; format: ADME, organism-based, Mesocricetus auratus; details: in vivo
[12] = Toxicity in Golden Syrian hamster assessed as reduction in adipocyte hypertrophy at 100 mg/kg, po administered for 7 days; format: organism-based, Mesocricetus auratus; details: in vivo, 168 h, time 7 day
[13] = Toxicity in Golden Syrian hamster assessed as reduction in LDL level in serum at 100 mg/kg, po administered for 7 days; format: organism-based, Mesocricetus auratus; details: in vivo, 168 h, time 7 day
Syrian golden hamster [14] = assay: Anti-dyslipidemic activity in HFD-induced Golden Syrian hamster model assessed as decrease in CEBPalpha level at 100 mg/kg, po administered for 7 days by Western blot analysis; format: functional, organism-based; details: Mesocricetus auratus, time 7.0 day
Syrian golden hamster [15] = assay: Anti-dyslipidemic activity in HFD-induced Golden Syrian hamster model assessed as decrease in PPARgamma level at 100 mg/kg, po administered for 7 days by Western blot analysis; format: functional, organism-based; details: Mesocricetus auratus, time 7.0 day

half-life [9]: 3.64 h
CL/F [10]: 2.81 L/h/kg
Vd [11]: 14.79 L/kg
Compound: Cc1ccc(/C=C/c2ccc(-c3cc(C(=O)O)c4cc(F)ccc4n3)cc2)cc1
Activity (3T3-L1 [1]): Active
Activity (3T3-L1 [2]): Toxic
Activity (3T3-L1 [3]): Non-toxic
Activity (3T3-L1 [4]): Active
Activity (3T3-L1 [5]): Active
inhibition (3T3-L1 [6]): Active
inhibition (3T3-L1 [7]): Active
Activity (3T3-L1 [8]): Active
Activity [12]: Non-toxic
Activity [13]: Non-toxic
Activity (Syrian golden hamster [14]): Active
Activity (Syrian golden hamster [15]): Active
